Laboratory results reported in patent US12214076B2, “Drug delivery vehicles for atherosclerosis nanomedicine” (Northwestern University, priority 2019, dated 2025).

What was measured:
[1] = Small angle x-ray scattering (SAXS) of PA nanofibers; type: physicochemical; settings: 5 mM in PBS
Description: Small angle x-ray scattering (SAXS): SAXS characterization of the PA nanofibers was performed at the Advanced Photon Source in the Argonne National Laboratory on beamline 5-ID-D, DuPont-Northwestern-Dow Collaborative Access Team Synchrotron Research Center. Samples were prepared at 5 mM in PBS solution, aged at least 24 hours at 4° C., and analyzed in 1.5 mm quartz capillaries (Charles Supper) at 17 keV with a charged couple device photon detector located 245 cm behind the sample. Scattering intensities were collected using wave vector q range of 0.0024 to 0.40 Å^−1. q represents the scattering vector and is calculated as q=4π sin (θ)/λ, with θ as the scattering angle between the incident beam and detector and […] the X-ray wavelength. The plots of scattering intensity versus q were obtained using NIST software Igor Pro v8. The scattering intensities of PBS were subtracted from the PA samples using the Irena SAS macro, and the resulting plots were fitted using NCNR Analysis macro to a polydisperse core shell cylinder model.

[2] = test system: J774.2 murine macrophages; assay: Nitric oxide production of stimulated macrophages; type: cell-based, mouse; settings: 24 hours, LPS and stimulated, 32 μM Ac2-26 or epitope equivalent
Description: Macrophage culture and characterization: J774.2 murine macrophages (Sigma-Aldrich) were expanded at 4-9×10^5 cells/mL in growth media consisting of Dulbecco's Modified Eagle's Medium (Sigma-Aldrich) containing 4.5 g/L glucose, 2 mM L-glutamine, 10% v/v FBS, 100 U/m penicillin, and 100 μg/mL streptomycin. Cells were passaged using Accutase™ (StemCell Technologies) and used at passage 6-9 for all experiments. The cells were detached with Accutase™ and gentle scraping, counted, and re-suspended in flow cytometry buffer containing 2% w/v bovine serum albumin (BSA, heat shock fraction free of proteases, globulin, and fatty acids, Sigma-Aldrich) and 0.1% w/v sodium azide (Sigma-Aldrich). To minimize non-specific binding of immunoglobin to Fc receptors, macrophages were incubated with anti-mouse CD16/32 antibody (TrueStain FcX™, Biolegend) at 1 μg/1×10^5 cells for 10 minutes at 4° C. APC anti-mouse CD11b antibody or APC Armenian hamster IgG isotype control antibody (Biolegend) were added at 0.4 μg/1×10^5 cells, FPR2 antibody (Novus Biologics) was added at […], and all samples were incubated for 30 minutes at 4° C. The cells were washed once with flow cytometry buffer by centrifugation at 300×g. FPR2 samples were further treated with goat anti-rabbit Alexa Fluor 488 secondary antibody (Invitrogen) at 2 μg/1×10^5 cells for 20 minutes at 4° C., followed by a wash step. Unstained macrophages served as controls and contained 7AAD viability staining solution (Biolegend) at 0.1 μg/1×10^5. All samples were suspended in 4% paraformaldehyde (Electron Microscopy Sciences) in PBS until analysis. […] All samples were analyzed using Attune NxT Acoustic Focusing Cytometer (Thermo Fisher) with at least 2000 events counted per condition.
Therapeutic effects of ApoA1-Ac2-26 PAs: 10% ROS- and MMP-Ac2-26 PAs, as well as Ac2-26 peptide were added together with 10 μg/mL LPS at 32 μM Ac2-26 to macrophages. […] Concerning the quantification of NO, the reducing solution made of KI in acetic acid and water provides an excess of I− that reacts with nitrite yielding ·NO. […]

[3] = TEM characterization of PA nanofibers for diameter and length (Example 3); type: physicochemical; settings: 30 measurements from three images
Description: Samples at 1 mM in PBS were prepared for TEM by plating on copper supports covered with thin carbon foil 400-mesh that were treated with glow discharge. […] Due to the overlapping fibers, automated tools including FiberApp could not be used to analyze the nanofibers. Instead, the TEM images were analyzed manually for nanofiber diameter and length using ImageJ software. Cryogenic TEM of samples was also performed using a JEOL 1230 at 100 kV accelerating voltage and Gatan 831 CCD camera. […] Samples were prepared at 1 mM in PBS blotted once for 3 seconds before plunging into liquid ethane using a Vitrobot Mark III (FEI) vitrification robot.

SAXS slope of Guinier regime in the low q region [1]: −1 | Diameter (nm) Average [3]: 12.3 nm | Diameter (nm) Median [3]: 12.4 nm | Length (nm) Average [3]: 3024.4 nm | Length (nm) Median [3]: 2541.4 nm | Diameter (nm) Average ([3]; listed as diluent): 12.3±3.1 nm | Length (nm) Median ([3]; listed as diluent): 2541 nm
Substance: C16-V2A2 (SEQ ID NO: 8)-E2-NH2 [Diluent PA]
macrophage activation, nitric oxide production relative to the stimulated control [2]: did not cause significant decreases in nitric oxide production
